In PubChem BioAssay AID2060889 (Molecular Pharmacology Branch, DTP, NCI, 2025):
pIC50: −log10 of the molar value.

Test system: LG0567-F671-PDC complex spheroids viability
Experiment: Anticancer human tumor LG0567-F671-PDC patient-derived lung adenocarcinoma cell line growth inhibition [RAS]
Conditions: for pIC50: curve of first compound; for viability, T/C: stronger effect = lower value
Procedure, shortened: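 Tumour cells grown as complex spheroids with HUVEC endothelial cells and mesenchymal stem cells, treated with RAS pathway inhibitor combinations. Each agent spans half-log steps from near clinical Cmax, or 10 microM where Cmax is unknown.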
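Further: spheroids exposed to compound for seven days before readout.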
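Wherever pIC50 is given: luminescence signal used as a proxy for viable cells.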

In the case of NC1c2ccccc2OC12CCN(c1cnc3c(N4CCCc5ncccc54)n[nH]c3n1)CC2 (centres undefined) + C#Cc1c(F)ccc2cc(O)cc(-c3ncc4c(N5CC6CCC(C5)N6)nc(OCC56CCCN5CC(F)C6)nc4c3F)c12, the pIC50 (second compound 0.0316 µM) was > 7.50, the pIC50 (second compound 0.1 µM) was > 7.50 and the pIC50 (second compound 0.316 µM) was > 7.50. The pIC50 (second compound 1 µM) was > 7.50, the pIC50 (second compound 3.16 µM) was > 7.50 and the pIC50 (second compound 10 µM) was > 7.50. The viability, T/C (second compound 0.0316 µM, first compound 0.0316 µM) was 26.7%, the viability, T/C (second compound 0.0316 µM, first compound 0.1 µM) was 19.3% and the viability, T/C (second compound 0.0316 µM, first compound 0.316 µM) was 14.6%. It also gave a viability, T/C (second compound 0.0316 µM, first compound 1 µM) of 13.3%, a viability, T/C (second compound 0.0316 µM, first compound 3.16 µM) of 10.4% and a viability, T/C (second compound 0.0316 µM, first compound 10 µM) of 10.1%. For the same compound, the viability, T/C (second compound 0.1 µM, first compound 0.0316 µM) was 21%, the viability, T/C (second compound 0.1 µM, first compound 0.1 µM) was 14.3% and the viability, T/C (second compound 0.1 µM, first compound 0.316 µM) was 10.1%. For the same compound, the viability, T/C (second compound 0.1 µM, first compound 1 µM) was 8.88%, the viability, T/C (second compound 0.1 µM, first compound 3.16 µM) was 7.88% and the viability, T/C (second compound 0.1 µM, first compound 10 µM) was 6.09%. The viability, T/C (second compound 0.316 µM, first compound 0.0316 µM) was 13.9%, the viability, T/C (second compound 0.316 µM, first compound 0.1 µM) was 9.75% and the viability, T/C (second compound 0.316 µM, first compound 0.316 µM) was 8.65%. It also gave a viability, T/C (second compound 0.316 µM, first compound 1 µM) of 4.96%, a viability, T/C (second compound 0.316 µM, first compound 3.16 µM) of 3.75% and a viability, T/C (second compound 0.316 µM, first compound 10 µM) of 2.92%. The viability, T/C (second compound 1 µM, first compound 0.0316 µM) was 9.24%, the viability, T/C (second compound 1 µM, first compound 0.1 µM) was 6.71% and the viability, T/C (second compound 1 µM, first compound 0.316 µM) was 4%. It also gave a viability, T/C (second compound 1 µM, first compound 1 µM) of 3.17%, a viability, T/C (second compound 1 µM, first compound 3.16 µM) of 2.53% and a viability, T/C (second compound 1 µM, first compound 10 µM) of 2.43%. For the same compound, the viability, T/C (second compound 3.16 µM, first compound 0.0316 µM) was 6.2%, the viability, T/C (second compound 3.16 µM, first compound 0.1 µM) was 3.13% and the viability, T/C (second compound 3.16 µM, first compound 0.316 µM) was 2.43%. The viability, T/C (second compound 3.16 µM, first compound 1 µM) was 1.79%, the viability, T/C (second compound 3.16 µM, first compound 3.16 µM) was 2.13% and the viability, T/C (second compound 3.16 µM, first compound 10 µM) was 1.85%. The viability, T/C (second compound 10 µM, first compound 0.0316 µM) was 3.6%, the viability, T/C (second compound 10 µM, first compound 0.1 µM) was 2.14% and the viability, T/C (second compound 10 µM, first compound 0.316 µM) was 1.74%. For the same compound, the viability, T/C (second compound 10 µM, first compound 1 µM) was 1.65%, the viability, T/C (second compound 10 µM, first compound 3.16 µM) was 1.73% and the viability, T/C (second compound 10 µM, first compound 10 µM) was 1.28%.
Work on CCc1c2c(nc3ccc(O)cc13)-c1cc3c(c(=O)n1C2)COC(=O)[C@]3(O)CC + C#Cc1c(F)ccc2cc(O)cc(-c3ncc4c(N5CC6CCC(C5)N6)nc(OCC56CCCN5CC(F)C6)nc4c3F)c12 yielded a pIC50 (second compound 0.0316 µM) of 7.79, a pIC50 (second compound 0.1 µM) of 7.93 and a pIC50 (second compound 0.316 µM) of 8.63. For the same compound, the pIC50 (second compound 1 µM) was > 9.02, the pIC50 (second compound 3.16 µM) was > 9.02 and the pIC50 (second compound 10 µM) was > 9.02. The viability, T/C (second compound 0.0316 µM, first compound 0.000949 µM) was 82.4%, the viability, T/C (second compound 0.0316 µM, first compound 0.003 µM) was 67.4% and the viability, T/C (second compound 0.0316 µM, first compound 0.00949 µM) was 56.8%. For the same compound, the viability, T/C (second compound 0.0316 µM, first compound 0.03 µM) was 44.4%, the viability, T/C (second compound 0.0316 µM, first compound 0.0949 µM) was 23.6% and the viability, T/C (second compound 0.0316 µM, first compound 0.3 µM) was 6.15%. For the same compound, the viability, T/C (second compound 0.1 µM, first compound 0.000949 µM) was 73.3%, the viability, T/C (second compound 0.1 µM, first compound 0.003 µM) was 61% and the viability, T/C (second compound 0.1 µM, first compound 0.00949 µM) was 54.8%. The viability, T/C (second compound 0.1 µM, first compound 0.03 µM) was 38.6%, the viability, T/C (second compound 0.1 µM, first compound 0.0949 µM) was 22.4% and the viability, T/C (second compound 0.1 µM, first compound 0.3 µM) was 7.9%. For the same compound, the viability, T/C (second compound 0.316 µM, first compound 0.000949 µM) was 50.4%, the viability, T/C (second compound 0.316 µM, first compound 0.003 µM) was 53.3% and the viability, T/C (second compound 0.316 µM, first compound 0.00949 µM) was 41%. It also gave a viability, T/C (second compound 0.316 µM, first compound 0.03 µM) of 29.8%, a viability, T/C (second compound 0.316 µM, first compound 0.0949 µM) of 20.3% and a viability, T/C (second compound 0.316 µM, first compound 0.3 µM) of 7.35%. For the same compound, the viability, T/C (second compound 1 µM, first compound 0.000949 µM) was 30.5%, the viability, T/C (second compound 1 µM, first compound 0.003 µM) was 29.1% and the viability, T/C (second compound 1 µM, first compound 0.00949 µM) was 26.7%. It also gave a viability, T/C (second compound 1 µM, first compound 0.03 µM) of 20.9%, a viability, T/C (second compound 1 µM, first compound 0.0949 µM) of 13.9% and a viability, T/C (second compound 1 µM, first compound 0.3 µM) of 6.24%. The viability, T/C (second compound 3.16 µM, first compound 0.000949 µM) was 20%, the viability, T/C (second compound 3.16 µM, first compound 0.003 µM) was 15.3% and the viability, T/C (second compound 3.16 µM, first compound 0.00949 µM) was 15.6%. It also gave a viability, T/C (second compound 3.16 µM, first compound 0.03 µM) of 11.2%, a viability, T/C (second compound 3.16 µM, first compound 0.0949 µM) of 8.88% and a viability, T/C (second compound 3.16 µM, first compound 0.3 µM) of 4.31%. The viability, T/C (second compound 10 µM, first compound 0.000949 µM) was 11%, the viability, T/C (second compound 10 µM, first compound 0.003 µM) was 10% and the viability, T/C (second compound 10 µM, first compound 0.00949 µM) was 10.1%. For the same compound, the viability, T/C (second compound 10 µM, first compound 0.03 µM) was 6.59%, the viability, T/C (second compound 10 µM, first compound 0.0949 µM) was 4.97% and the viability, T/C (second compound 10 µM, first compound 0.3 µM) was 3.6%.
